According to US20170152239A1, “BENZAMIDE AND HETEROBENZAMIDE COMPOUNDS” (PFIZER INC., priority 2012, published 2017):

Tests used:
Format in all cases: biochemical
[1] = target: WT EZH2 (EZH2 4 protein complex: EZH2, EED, SUZ12, RbAp48) (Homo sapiens, UniProt Q15910); assay: WT EZH2 nucleosome assay; details: compound at 20 μM; nucleosome assay
Method in brief: (§1)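 Radiometric methyltransferase assay: 5 nM EZH2 four-protein complex, 1.5 μM 3H-SAM, 25 μg/mL HeLa oligonucleosomes, 50 nM recombinant H1 in 100 mM Tris pH 8.5, 4 mM DTT, 0.01% Tween-20. 60 min reaction, TCA quench, filter capture, scintillation counting; IC50 from 11-point 4-parameter fit; % effect at 20 μM.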

[2] = target: WT EZH2 (EZH2 4 protein complex: EZH2, EED, SUZ12, RbAp48) (Homo sapiens, UniProt O75530+Q09028+Q15022+Q15910); assay: WT EZH2 nucleosome assay; details: nucleosome assay, 5 nM EZH2 4-protein complex, 1.5 μM SAM; read-out: WT EZH2 IC50
Chain of WT EZH2 (EZH2 4 protein complex: EZH2, EED, SUZ12, RbAp48) (Homo sapiens, UniProt O75530+Q09028+Q15022+Q15910) (Q15910 whole entry): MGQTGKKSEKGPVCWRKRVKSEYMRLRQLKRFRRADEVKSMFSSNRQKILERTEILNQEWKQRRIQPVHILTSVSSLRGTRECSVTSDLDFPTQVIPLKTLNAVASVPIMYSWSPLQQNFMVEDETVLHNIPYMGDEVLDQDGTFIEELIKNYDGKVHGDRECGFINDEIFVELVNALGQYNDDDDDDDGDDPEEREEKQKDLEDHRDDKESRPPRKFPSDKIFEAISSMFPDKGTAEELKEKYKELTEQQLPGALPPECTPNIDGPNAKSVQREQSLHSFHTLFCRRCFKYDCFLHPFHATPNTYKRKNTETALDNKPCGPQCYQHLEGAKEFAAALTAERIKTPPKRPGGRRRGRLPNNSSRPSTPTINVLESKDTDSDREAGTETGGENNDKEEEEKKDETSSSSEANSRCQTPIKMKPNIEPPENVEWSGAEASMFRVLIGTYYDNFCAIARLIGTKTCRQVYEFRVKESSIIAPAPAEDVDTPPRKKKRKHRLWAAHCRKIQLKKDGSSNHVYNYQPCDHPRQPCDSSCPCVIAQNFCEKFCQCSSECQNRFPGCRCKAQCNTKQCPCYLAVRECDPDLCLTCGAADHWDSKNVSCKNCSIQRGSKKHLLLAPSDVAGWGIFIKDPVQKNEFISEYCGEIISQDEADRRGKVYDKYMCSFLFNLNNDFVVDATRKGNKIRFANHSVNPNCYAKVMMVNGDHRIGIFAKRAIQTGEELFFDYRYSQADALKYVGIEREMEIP
Chain of WT EZH2 (EZH2 4 protein complex: EZH2, EED, SUZ12, RbAp48) (Homo sapiens, UniProt O75530+Q09028+Q15022+Q15910) (O75530 whole entry partner): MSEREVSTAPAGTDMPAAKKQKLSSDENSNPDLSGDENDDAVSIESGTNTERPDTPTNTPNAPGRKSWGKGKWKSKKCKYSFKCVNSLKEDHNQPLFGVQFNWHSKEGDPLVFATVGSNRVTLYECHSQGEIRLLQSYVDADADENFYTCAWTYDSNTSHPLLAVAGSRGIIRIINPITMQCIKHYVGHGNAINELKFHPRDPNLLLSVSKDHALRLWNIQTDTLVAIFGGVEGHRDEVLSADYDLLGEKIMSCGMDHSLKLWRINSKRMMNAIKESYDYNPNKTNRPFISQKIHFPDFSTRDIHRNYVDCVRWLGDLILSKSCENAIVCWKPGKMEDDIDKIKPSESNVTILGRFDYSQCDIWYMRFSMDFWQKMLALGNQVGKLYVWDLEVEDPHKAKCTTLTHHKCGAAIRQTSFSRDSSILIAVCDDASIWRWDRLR
Chain of WT EZH2 (EZH2 4 protein complex: EZH2, EED, SUZ12, RbAp48) (Homo sapiens, UniProt O75530+Q09028+Q15022+Q15910) (Q15022 whole entry partner): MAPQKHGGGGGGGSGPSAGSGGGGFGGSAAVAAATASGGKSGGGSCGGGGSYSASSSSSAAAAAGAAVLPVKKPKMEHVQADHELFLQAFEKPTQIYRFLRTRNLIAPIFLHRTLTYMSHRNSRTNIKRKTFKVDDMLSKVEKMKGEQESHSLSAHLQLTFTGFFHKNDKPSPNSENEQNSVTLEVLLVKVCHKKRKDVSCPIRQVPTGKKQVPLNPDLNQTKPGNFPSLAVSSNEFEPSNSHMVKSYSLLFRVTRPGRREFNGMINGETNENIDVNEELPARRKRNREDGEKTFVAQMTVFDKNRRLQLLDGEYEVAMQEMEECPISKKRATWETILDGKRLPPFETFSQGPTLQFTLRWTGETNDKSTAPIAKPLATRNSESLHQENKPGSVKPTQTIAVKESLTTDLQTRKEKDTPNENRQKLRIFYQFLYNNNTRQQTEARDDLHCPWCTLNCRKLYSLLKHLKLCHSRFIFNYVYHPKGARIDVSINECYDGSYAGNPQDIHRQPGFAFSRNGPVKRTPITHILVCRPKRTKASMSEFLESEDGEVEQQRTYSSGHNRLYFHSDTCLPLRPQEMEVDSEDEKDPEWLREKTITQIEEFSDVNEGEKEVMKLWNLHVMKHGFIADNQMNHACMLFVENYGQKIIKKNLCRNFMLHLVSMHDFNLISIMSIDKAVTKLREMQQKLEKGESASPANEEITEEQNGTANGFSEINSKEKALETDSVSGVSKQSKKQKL
Chain of WT EZH2 (EZH2 4 protein complex: EZH2, EED, SUZ12, RbAp48) (Homo sapiens, UniProt O75530+Q09028+Q15022+Q15910) (Q09028 whole entry partner): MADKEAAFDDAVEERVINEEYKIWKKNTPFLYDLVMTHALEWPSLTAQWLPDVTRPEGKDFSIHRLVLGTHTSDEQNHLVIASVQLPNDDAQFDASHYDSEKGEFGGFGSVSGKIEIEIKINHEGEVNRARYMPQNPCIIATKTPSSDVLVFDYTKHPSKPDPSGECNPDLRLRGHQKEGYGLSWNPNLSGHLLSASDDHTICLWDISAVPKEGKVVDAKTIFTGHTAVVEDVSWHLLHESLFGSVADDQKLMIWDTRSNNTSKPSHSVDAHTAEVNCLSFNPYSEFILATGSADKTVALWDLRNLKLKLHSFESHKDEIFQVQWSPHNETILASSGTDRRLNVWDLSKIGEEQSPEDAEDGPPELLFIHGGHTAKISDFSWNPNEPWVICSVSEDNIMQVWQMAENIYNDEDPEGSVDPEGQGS
Method in brief: as §1

EZH2PRC2 mutant Y641N = EZH2PRC2 mutant Y641N (Homo sapiens, UniProt Q15910, Y641N); assay: EZH2PRC2 mutant Y641N nucleosome assay; details: read-out: EZH2PCR2 Mutant Y641N IC50
Chain of EZH2PRC2 mutant Y641N (Q15910 whole entry Y641N): as the sequence (Q15910 whole entry) above, with Y641N counted along it
Chain of EZH2PRC2 mutant Y641N (O75530 whole entry partner): as the sequence (O75530 whole entry partner) above
Chain of EZH2PRC2 mutant Y641N (Q15022 whole entry partner): as the sequence (Q15022 whole entry partner) above
Chain of EZH2PRC2 mutant Y641N (Q09028 whole entry partner): as the sequence (Q09028 whole entry partner) above
Procedure: Nucleosome Assay Protocol:
A. Compound preparation • 1. Prepare 10 mM stock solutions in 100% DMSO from solid material • 2. Serial dilute 10 mM compound stocks either 2 or 3-fold in 100% DMSO to generate compounds for 11 point dose response
B. Reagent preparation • 1. Prepare 1× assay buffer containing 100 mM Tris pH 8.5, 4 mM DTT and 0.01% Tween-20 • 2. Dilute purified HeLA oligonucleosomes and recombinant histone H1 (New England Biolabs) in assay buffer to 1.67×. • 3. Dilute EZH2 4 protein complex (EZH2, EED, SUZ12, RbAp48) to 3.5× in assay buffer • 4. Prepare 10×^3H SAM solution in assay buffer using 0.94 μCi/well of radioactive SAM (Perkin Elmer) and sufficient non-labeled SAM (Sigma) for 1.5 μM final concentration. • 5. Dilute TCA to 20% in DI water
C. Enzyme reaction • 1. Final reaction conditions are 5 nM EZH2 4-protein complex, 1.5 μM SAM, 25 μg/mL oligonucleosomes, 50 nM rH1 in a 50 μl reaction volume. • 2. Add 1 μl of diluted compound to the assay plate (96-well V-bottom polypropylene plates) or 1 μl of DMSO for control wells. • 3. Add 30 μl of nucleosomes to the assay plate • 4. Add 14 μl of EZH2 4 protein complex to the assay plate • 5. Add 5 μl of ^3H SAM to start the reaction. • 6. Stop the reaction after 60 minutes with the addition of 100 μl of 20% TCA • 7. Transfer 150 μl of quenched reaction into a prepared filterplate (Millipore #MSIPN4B10) • 8. Apply vacuum to the filterplate to filter the reaction mix through the membrane. • 9. Wash the filterplate with 8×200 μl of PBS, blot dry and dry in an oven for 30 minutes • 10. Add 50 μl of microscint-20 scintillation fluid (Perkin Elmer) to each well, wait 30 minutes and count on a liquid scintillation counter.
D. Data analysis • 1. IC50 values were determined by fitting the data to a 4-parameter IC50 equation using proprietary curve fitting software.
Wild type (WT) EZH2% Effect at 20 μM and IC50 values (μM) generated in WT EZH2 or EZH2PRC2 mutant Y641N nucleosome assays are provided in Table 3 below. A blank entry in the table indicates the data was not generated in that assay.

Chain of WT EZH2 (EZH2 4 protein complex: EZH2, EED, SUZ12, RbAp48) (Homo sapiens, UniProt Q15910) (Q15910 whole entry): as the sequence (Q15910 whole entry) above
Chain of WT EZH2 (EZH2 4 protein complex: EZH2, EED, SUZ12, RbAp48) (Homo sapiens, UniProt Q15910) (O75530 whole entry partner): as the sequence (O75530 whole entry partner) above
Chain of WT EZH2 (EZH2 4 protein complex: EZH2, EED, SUZ12, RbAp48) (Homo sapiens, UniProt Q15910) (Q15022 whole entry partner): as the sequence (Q15022 whole entry partner) above
Chain of WT EZH2 (EZH2 4 protein complex: EZH2, EED, SUZ12, RbAp48) (Homo sapiens, UniProt Q15910) (Q09028 whole entry partner): as the sequence (Q09028 whole entry partner) above

Structure (SMILES) | % Effect in WT EZH2 at 20 μM [1] [%] | IC50 [2] [µM] | IC50 (EZH2PRC2 mutant Y641N) [µM]
Cc1cc(C)c(CNC(=O)c2cc(Cl)cc(-c3ccnn3C)c2C)c(=O)[nH]1 [Example 5, 5-chloro-N-[(4,6-dimethyl-2-oxo-1,2-dihydropyridin-3-yl)methyl]-2-methyl-3-(1-methyl-1H-pyrazol-5-yl)benzamide] | 94.88 | 0.45 | 
Cc1cc(C)c(CNC(=O)c2cc(-c3cnn(C)c3)cc(OC(C)C)c2Cl)c(=O)[nH]1 [Example 26, 2-chloro-N-[(4,6-dimethyl-2-oxo-1,2-dihydropyridin-3-yl)methyl]-3-isopropoxy-5-(1-methyl-1H-pyrazol-4-yl)benzamide] | 93.705 | 0.93 | 
Cc1cc(C)c(CNC(=O)c2cccc(OC(C)C)c2C)c(=O)[nH]1 [Example 32, N-((4,6-dimethyl-2-oxo-1,2-dihydropyridin-3-yl)methyl)-3-isopropoxy-2-methylbenzamide] | 83.654 | 0.87 | 11.2
Cc1cc(C)c(CNC(=O)c2cc(-c3cnn(C)c3)nc(OC(C)C)c2Cl)c(=O)[nH]1 [Example 33, 3-chloro-N-[(4,6-dimethyl-2-oxo-1,2-dihydropyridin-3-yl)methyl]-2-isopropoxy-6-(1-methyl-1H-pyrazol-4-yl)isonicotinamide] | 92.965 | 0.78 | 
Cc1cc(C)c(CNC(=O)c2ccnc(OC(C)C)c2Cl)c(=O)[nH]1 [Example 65, 3-chloro-N-[(4,6-dimethyl-2-oxo-1,2-dihydropyridin-3-yl)methyl]-2-isopropoxyiso-nicotinamide] | 71.459 | 4.51 | 
COc1cccc(C(=O)NCc2c(C)cc(C)[nH]c2=O)c1Br [Example 66, 2-bromo-N-[(4,6-dimethyl-2-oxo-1,2-dihydropyridin-3-yl)methyl]-3-methoxybenza-mide] | 76.288 | 4.88 | 
Cc1cc(C)c(CNC(=O)c2nccc(OC(C)C)c2C)c(=O)[nH]1 [Example 82, N-[(4,6-dimethyl-2-oxo-1,2-dihydropyridin-3-yl)methyl]-4-isopropoxy-3-methylpyridine-2-carboxamide] | 69.830 | 7.79 | 
COc1ccc(OC)c(C(=O)NCc2c(C)cc(C)[nH]c2=O)c1Cl [Example 119, 2-chloro-N-[(4,6-dimethyl-2-oxo-1,2-dihydropyridin-3-yl)methyl]-3,6-dimethoxy-benzamide] | 44.087 | 37.4 | 
COc1cc(OC)c(Cl)c(C(=O)NCc2c(C)cc(C)[nH]c2=O)c1Cl [Example 126, 2,6-dichloro-N-[(4,6-dimethyl-2-oxo-1,2-dihydropyridin-3-yl)methyl]-3,5-dimethoxybenz-amide] | 38.121 | 52 | 
COc1cccc(C(=O)NCc2c(C)cc(C)[nH]c2=O)c1C#N [Example 135, 2-cyano-N-[(4,6-dimethyl-2-oxo-1,2-dihydropyridin-3-yl)methyl]-3-methoxybenz-amide] | 62.306 | 141 | > 200
Cc1cc(C)c(CNC(=O)c2ccnc(OC(C)C)c2F)c(=O)[nH]1 [Example 138, N-[(4,6-dimethyl-2-oxo-1,2-dihydropyridin-3-yl)methyl]-3-fluoro-2-isopropoxyiso-nicotinamide] | 44.736 | 172 | 
CCn1ncc(C)c1-c1cccc(C(=O)NCc2c(C)c(Br)c(C)[nH]c2=O)c1C [Example 147, N-[(5-bromo-4,6-dimethyl-2-oxo-1,2-dihydropyridin-3-yl)methyl]-3-(1-ethyl-4-methyl-1H-pyrazol-5-yl)-2-methylbenzamide] |  | 178 | > 200

Results, then the compound that gave them:

% Effect in WT EZH2 at 20 μM [1] [%] | IC50 [2] [µM] | IC50 (EZH2PRC2 mutant Y641N) [µM] | Structure (SMILES)
93.582 | 1.63 |  | Cc1cc(C)c(CNC(=O)c2cccc(OC(C)C)c2Cl)c(=O)[nH]1 [Example 46, 2-chloro-N-[(4,6-dimethyl-2-oxo-1,2-dihydropyridin-3-yl)methyl]-3-isopropoxy-benzamide]
69.743 | 7.03 |  | Cc1cc(-c2cc(Cl)cc(C(=O)NCc3c(C)cc(C)[nH]c3=O)c2C)n(C)n1 [Example 77, 5-chloro-N-[(4,6-dimethyl-2-oxo-1,2-dihydropyridin-3-yl)methyl]-3-(1,3-dimethyl-1H-pyrazol-5-yl)-2-methylbenz-amide]
71.325 | 7.52 | 43.1 | COc1cccc(C(=O)NCc2c(C)cc(C)[nH]c2=O)c1Cl [Example 79, 2-chloro-N-[(4,6-dimethyl-2-oxo-1,2-dihydropyridin-3-yl)methyl]-3-methoxybenza-mide]
69.248 | 9.12 |  | Cc1cc(C)c(CNC(=O)c2ncnc(OC(C)C)c2Cl)c(=O)[nH]1 [Example 85]
64.416 | 9.38 |  | Cc1cc(C)c(CNC(=O)c2c(F)ccc(OC(C)C)c2Cl)c(=O)[nH]1 [Example 86, 2-chloro-N-[(4,6-dimethyl-2-oxo-1,2-dihydropyridin-3-yl)methyl]-6-fluoro-3-isopropoxy-benzamide]
 | 19.8 | 86 | Cc1cc(C)c(CNC(=O)c2ccnc(N3CCC[C@H]3C)c2Cl)c(=O)[nH]1 [Example 106, 3-chloro-N-[(4,6-dimethyl-2-oxo-1,2-dihydropyridin-3-yl)methyl]-2-[(2R)-2-methylpyrrolidin-1-yl]isonicotin-amide]
43.834 | 27.1 |  | COc1c(OC(C)C)cccc1C(=O)NCc1c(C)cc(C)[nH]c1=O [Example 113, N-[(4,6-dimethyl-2-oxo-1,2-dihydropyridin-3-yl)methyl]-3-isopropoxy-2-methoxy-benzamide]
35.052 | 53.3 |  | COc1ccc(C(=O)NCc2c(C)cc(C)[nH]c2=O)c(Cl)c1OC [Example 127, 2-chloro-N-[(4,6-dimethyl-2-oxo-1,2-dihydropyridin-3-yl)methyl]-3,4-dimethoxy-benzamide]
38.993 | 54.3 |  | CCCc1c(OC)cccc1C(=O)NCc1c(C)cc(C)[nH]c1=O [Example 128, N-[(4,6-dimethyl-2-oxo-1,2-dihydropyridin-3-yl)methyl]-3-methoxy-2-propylbenzamide]
32.145 | 54.3 |  | Cc1cc(C)c(CNC(=O)c2c(Cl)ccc(OCCN3CCCC3)c2Cl)c(=O)[nH]1 [Example 129, 2,6-dichloro-N-[(4,6-dimethyl-2-oxo-1,2-dihydropyridin-3-yl)methyl]-3-(2-pyrrolidin-1-ylethoxy)benza-mide]
20.924 | 167 |  | COc1cccc(C(=O)NCc2c(C)cc(C)[nH]c2=O)c1F [Example 137, N-[(4,6-dimethyl-2-oxo-1,2-dihydropyridin-3-yl)methyl]-2-fluoro-3-methoxybenz-amide]
 | 0.0342 | 0.198 | Cc1cc(C)c(CNC(=O)c2cc(-c3ccc(N4CCN(C)CC4)nc3)cc(-c3ccnn3C)c2C)c(=O)[nH]1 [Example 149, N-[(4,6-dimethyl-2-oxo-1,2-dihydropyridin-3-yl)methyl]-2-methyl-5-[6-(4-methylpiperazin-1-yl)pyridin-3-yl]-3-(1-methyl-1H-pyrazol-5-yl)benzamide]
 | 0.113 | 0.679 | Cc1cc(C)c(CNC(=O)c2cc(-c3ccc(CN4CCOCC4)cc3)cc(-c3ccnn3C)c2C)c(=O)[nH]1 [Example 150, N-[(4,6-dimethyl-2-oxo-1,2-dihydropyridin-3-yl)methyl]-4-methyl-5-(1-methyl-1H-pyrazol-5-yl)-4′-(morpholin-4-ylmethyl)bi-phenyl-3-carboxamide]
